Assay results reported in patent publication US11345712B2, “Protein-targeting compounds and pharmaceutical compositions thereof, and their therapeutic applications” (BioTheryX, Inc., priority 2019, dated 2022).

What follows are molecules tested on MOLM-13 cells (assay: MOLM-13 cell viability assay (CellTiter-Glo)). Settings: Homo sapiens, MOLM-13, 72 h, 3 days, concentration of 1 μM, read-out: Antiproliferative Activity (inhibition, MOLM-13 cell viability).
Format: cell-based
Procedure, shortened: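 Luminescent ATP read-out (CellTiter-Glo, 10 min with shaking) after 3-day compound or DMSO exposure at 37° C, 5% CO2. Cells plated at 2,500/well in RPMI 1640 plus 10% FBS.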
In the case of `Cc1cc(NC(=O)NCc2cc3c(s2)C(=O)N(C2CCC(=O)NC2=O)C3)ccc1N1CCOCC1` (stereo not drawn) [II-26, 1-((5-(2,6-dioxopiperidin-3-yl)-6-oxo-5,6-dihydro-4H-thieno[2,3-c]pyrrol-2-yl)methyl)-3-(3-methyl-4-morpholinophenyl)urea], the cytotoxicity at 1 µM is reported as under 25%.
For `O=C(Cc1ccc(N2CCCC2)cc1)NCc1scc2c1CN(C1CCC(=O)NC1=O)C2=O` (stereo not drawn) [II-93, N-((5-(2,6-dioxopiperidin-3-yl)-4-oxo-5,6-dihydro-4H-thieno[3,4-c]pyrrol-1-yl)methyl)-2-(4-(pyrrolidin-1-yl)phenyl)acetamide], the cytotoxicity at 1 µM was under 25%.
Molecule `O=C1CCC(N2Cc3c(csc3CNC(=O)C(F)(F)c3ccc(C4(C(F)(F)F)CC4)cc3)C2=O)C(=O)N1` (stereo not drawn) [II-165, N-((5-(2,6-Dioxopiperidin-3-yl)-4-oxo-5,6-dihydro-4H-thieno[3,4-c]pyrrol-1-yl)methyl)-2,2-difluoro-2-(4-(1-(trifluoromethyl)cyclopropyl)phenyl)acetamide] has a cytotoxicity at 1 µM of under 25%.
With `O=C(CCCc1ccc(N2CCOCC2)cc1)NCc1scc2c1CN(C1CCC(=O)NC1=O)C2=O` (stereo not drawn) [II-146, N-((5-(2,6-dioxopiperidin-3-yl)-4-oxo-5,6-dihydro-4H-thieno[3,4-c]pyrrol-1-yl)methyl)-4-(4-morpholinophenyl)butanamide] the cytotoxicity at 1 µM was under 25%.
`Cc1ccc(CC(=O)NCc2cc3c(s2)C(=O)N(C2CCC(=O)NC2=O)C3)cc1Cl` (stereo not drawn) [II-30, 2-(3-chloro-4-methylphenyl)-N-((5-(2,6-dioxopiperidin-3-yl)-6-oxo-5,6-dihydro-4H-thieno[2,3-c]pyrrol-2-yl)methyl)acetamide] showed a cytotoxicity at 1 µM of under 25%.
Molecule `O=C1CCC(N2Cc3c(CNC(=O)C(=O)c4cccc(Cl)c4)cccc3C2=O)C(=O)N1` (stereo not drawn) [Compound I-88, 2-(3-chlorophenyl)-N-((2-(2,6-dioxopiperidin-3-yl)-1-oxoisoindolin-4-yl)methyl)-2-oxoacetamide] has a cytotoxicity at 1 µM of under 25%.
`CC(=O)Nc1ccc(C(=O)C(=O)NCc2scc3c2CN(C2CCC(=O)NC2=O)C3=O)cc1` (stereo not drawn) [Compound I-20, 2-(4-acetamidophenyl)-N-((5-(2,6-dioxopiperidin-3-yl)-4-oxo-5,6-dihydro-4H-thieno[3,4-c]pyrrol-1-yl)methyl)-2-oxoacetamide] gave a cytotoxicity at 1 µM of under 25%.
Work on `O=C1CCC(N2Cc3c(csc3CNC(=O)NCc3c(Cl)cccc3Cl)C2=O)C(=O)N1` (stereo not drawn) [II-37, 1-(2,6-dichlorobenzyl)-3-((5-(2,6-dioxopiperidin-3-yl)-4-oxo-5,6-dihydro-4H-thieno[3,4-c]pyrrol-1-yl)methyl)urea] yielded a cytotoxicity at 1 µM of over 80%.
Molecule `CN(C)C(C(=O)NCc1scc2c1CN(C1CCC(=O)NC1=O)C2=O)c1ccccc1F` (stereo not drawn) [II-108, 2-(dimethylamino)-N-((5-(2,6-dioxopiperidin-3-yl)-4-oxo-5,6-dihydro-4H-thieno[3,4-c]pyrrol-1-yl)methyl)-2-(2-fluorophenyl)acetamide] has a cytotoxicity at 1 µM of under 25%.
Molecule `CN(C)c1cc(NC(=O)NCc2cc3c(s2)C(=O)N(C2CCC(=O)NC2=O)C3)cc(C(F)(F)F)c1` (stereo not drawn) [II-50, 1-(3-(dimethylamino)-5-(trifluoromethyl)phenyl)-3-((5-(2,6-dioxopiperidin-3-yl)-6-oxo-5,6-dihydro-4H-thieno[2,3-c]pyrrol-2-yl)methyl)urea] has a cytotoxicity at 1 µM of over 80%.
`O=C1CCC(N2Cc3cc(CNC(=O)C(=O)c4ccc(C(F)(F)F)cc4)ccc3C2=O)C(=O)N1` (stereo not drawn) [Compound I-87, N-((2-(2,6-dioxopiperidin-3-yl)-1-oxoisoindolin-5-yl)methyl)-2-oxo-2-(4-trifluoromethylphenyl)acetamide] showed a cytotoxicity at 1 µM of 25 to 50%.
`O=C1CCC(N2Cc3c(CNC(=O)C(=O)c4ccc(C5CCNCC5)cc4)cccc3C2=O)C(=O)N1` (stereo not drawn) [Compound I-66, N-((2-(2,6-dioxopiperidin-3-yl)-1-oxoisoindolin-4-yl)methyl)-2-oxo-2-(4-(piperidin-4-yl)phenyl)acetamide] showed a cytotoxicity at 1 µM of under 25%.
